Reference: US5610139A, “Antimicrobial compositions and pharmaceutical preparations thereof” (Seikagaku Corporation, priority 1992, dated 1997)
≈ marks a conversion by molar mass, not a printed value. Read-outs that look alike come from different tables or passages of the source. Where a SMILES comes first, the peptide text is derived from it. Bridges are numbered along the chain shown (N, C = ends).

How the values were obtained:
[1] = tested on: MRSA No. 3-50 strain; type: cell-based, Staphylococcus aureus; conditions: for growth: MRSA No. 3-50; for MIC, single administration of the peptide: MRSA; on growth: key: + shows growth; - shows no growth
Description: Synergistic antimicrobial activities by the combinations of tachyplesin I and β-lactam antibiotics or chloramphenicol antibiotics against above mentioned clinically isolated MRSAs were examined and the results against MRSA No. 3-50 strain are shown in the following Tables.

[2] = tested on: 55 strains of clinically isolated MRSA; type: cell-based, Staphylococcus aureus
Description: The MRSAs used for the experiments shown below were isolated as follows. Specimens of urine, sputa and pus of hospitalized patients in Nagoya University, School of Medicine Hospital were smeared and cultured on blood agar medium. Staphylococcus aureus was isolated and identified from the grown colonies. Their sensitivity were examined using BBL test disks containing one μg of oxacillin (BBL Microbiology System Co., Ltd.) and strains showing inhibitory zone of 10 mm or less were classified as MRSA. A total of 55 strains of MRSA Nos. 170, 199, 3-50, 3-53 and so forth were isolated. Their sensitivity were confirmed by an agar plate dilution method using Mueller-Hinton agar medium of BBL (BBL Microbiology System Co., Ltd.) containing 100, 50, 25, 12.5, 6.3, 3.2, 1.6 or 0.8 μg/ml of methicillin (Banyu Pharmaceutical Co., Ltd.).
MRSAs obtained by the preceding method were cultured in L medium (1% bactotrypton, 0.5% yeast extract, 0.5% NaCl, pH 7.2) overnight and diluted 40-fold with a phosphate buffered saline solution (PBS).
Separately, tachyplesin I was diluted by 2-fold method using M9 medium (a synthetic medium added with 1% casamino acid) or T broth (0.5% bactotrypton and 0.5% NaCl) to give concentrations of 200-0.4 μg/ml and poured in a 96 well microplate at 100 μl/well each.
The 40-fold diluted bacterial solution was further diluted 10-fold with the M9 medium or T broth and poured 100 μl each to the above wells and the combined solution was mixed to give final concentration of 100-0.2 μg/ml of tachyplesin I. The bacterial concentration was made approximately 10^6 cfu/well (cfu=colony forming unit).
The resultant mixed solutions of bacterial and tachyplesin I solutions were cultured overnight (18 hrs.) at 37° C. The growth of bacteria was determined by the turbidity of the medium and the minimum concentration required to inhibit their growth was used as the minimum inhibitory concentration (MIC).
MICs of various antimicrobial peptides derived from horseshoe crab against 55 strains of clinically isolated MRSA were determined by a similar method to that shown above.

[3] = tested on: artificial vesicles using inner membrane of E. coli; assay: Action on membrane potential in artificial vesicles in vitro; type: biochemical
Description: The antimicrobial mechanisms of the peptides such as tachyplesins against MRSAs are supposed to be similar to those of against Escherichia coil and Salmonella spp. There is an energy producing mechanism by oxidative phosphorylation in cytoplasmic membrane of bacteria, which couples with membrane potential. The action mechanism against E. coli was modeled in artificial vesicles using inner membrane of E. coli and the action of tachyplesin I was investigated in vitro.

[4] = antibiotic 10 μg/ml alone (TAC-I 0 μg/ml)
[5] = antibiotic 20 μg/ml alone (TAC-I 0 μg/ml)
[6] = against 55 strains of clinically isolated MRSA

| Structure (SMILES) | growth [1, 4] | growth [1, 5] | MIC [2, 6] [µg/mL] | MIC, single administration of the peptide [1] [µg/mL] | other results |
| --- | --- | --- | --- | --- | --- |
| O=C(N[C@H](CO)[C@H](O)c1ccc([N+](=O)[O-])cc1)C(Cl)Cl [CP, Chloramphenicol] | + | + |  |  | growth ([1]; antibiotic 5 μg/ml alone (TAC-I 0 μg/ml)): + |
| CC[C@H](C)[C@@H]1NC(=O)CNC(=O)[C@H](CCCNC(=N)N)NC(=O)[C@H](Cc2ccc(O)cc2)NC(=O)[C@@H]2CSSC[C@H](NC1=O)C(=O)N[C@@H](Cc1ccc(O)cc1)C(=O)N[C@@H](CCCNC(=N)N)C(=O)N[C@@H](CCCCN)C(=O)N[C@H](C(=O)N[C@@H](CCCNC(=N)N)C(N)=O)CSSC[C@H](NC(=O)[C@H](Cc1c[nH]c3ccccc13)NC(=O)[C@@H](N)CCCNC(=N)N)C(=O)N[C@@H](Cc1ccccc1)C(=O)N[C@@H](CCCNC(=N)N)C(=O)N[C@@H](C(C)C)C(=O)N2 [Tachyplesin II] (H-RWCFRVCYRGICYRKCR-NH2; disulfide 3-16, 7-12; N-terminus and C-terminus assumed) |  |  | 3.2 (≈ 1.41 µM) |  |  |
| CC[C@H](C)[C@@H]1NC(=O)CNC(=O)[C@H](CCCNC(=N)N)NC(=O)[C@H](Cc2ccc(O)cc2)NC(=O)[C@@H]2CSSC[C@H](NC1=O)C(=O)N[C@@H](Cc1ccc(O)cc1)C(=O)N[C@@H](CCCNC(=N)N)C(=O)N[C@@H](CCCNC(=N)N)C(=O)N[C@H](C(=O)N[C@@H](CCCNC(=N)N)C(N)=O)CSSC[C@H](NC(=O)[C@H](Cc1c[nH]c3ccccc13)NC(=O)[C@@H](N)CCCCN)C(=O)N[C@@H](Cc1ccccc1)C(=O)N[C@@H](CCCNC(=N)N)C(=O)N[C@@H](C(C)C)C(=O)N2 [Tachyplesin I] (H-KWCFRVCYRGICYRRCR-NH2; disulfide 3-16, 7-12; N-terminus and C-terminus assumed) |  |  |  | 3.2 | effect on membrane potential generated in the cytoplasmic membrane [3]: depolarized the membrane potential; growth ([1]; TAC-I 0.4 μg/ml alone (antibiotic 0 μg/ml)): +; growth ([1]; TAC-I 0.8 μg/ml alone (antibiotic 0 μg/ml)): +; growth ([1]; TAC-I 1.6 μg/ml alone (antibiotic 0 μg/ml)): +; MIC ([2]; 47 strains (85% of total 55 MRSA strains)): 6.3 µg/mL (≈ 2.78 µM); MIC ([2]; one strain (2% of total 55 MRSA strains)): 12.5 µg/mL (≈ 5.52 µM); MIC ([2]; seven strains (13% of total 55 MRSA strains)): 3.2 µg/mL (≈ 1.41 µM) |
| CC1(C)S[C@@H]2[C@H](NC(=O)[C@H](N)c3ccccc3)C(=O)N2[C@H]1C(=O)O [ABPC, Ampicillin] | + | + |  |  |  |
| Cc1nnc(SCC2=C(C(=O)O)N3C(=O)[C@@H](NC(=O)Cn4cnnn4)[C@H]3SC2)s1 [CEZ, Cefazolin] | + | + |  |  | growth ([1]; antibiotic 40 μg/ml alone (TAC-I 0 μg/ml)): - |
| CC(C)[C@@H]1NC(=O)[C@H](CCCNC(=N)N)NC(=O)[C@H](Cc2ccccc2)NC(=O)[C@@H](NC(=O)[C@H](Cc2c[nH]c3ccccc23)NC(=O)[C@H](CCCNC(=N)N)NC(=O)[C@@H](N)CCCNC(=N)N)CSSC[C@@H](C(=O)N[C@@H](CCCNC(=N)N)C(N)=O)NC(=O)[C@H](CCCCN)NC(=O)[C@H](CCCNC(=N)N)NC(=O)[C@H](Cc2ccc(O)cc2)NC(=O)[C@@H]2CSSC[C@H](NC1=O)C(=O)N[C@@H](Cc1ccc(O)cc1)C(=O)N[C@@H](CCCCN)C(=O)NCC(=O)N[C@@H](Cc1ccccc1)C(=O)N2 [Polyphemusin II] (H-RRWCFRVCYKGFCYRKCR-NH2; disulfide 4-17, 8-13) |  |  | 6.3 (≈ 2.6 µM) | 6.3 |  |
